pIC50: −log10 of the molar value. Values belong to the molecule of their own block, whether it stands above or below them.
System: 323965-272-R-J2-PDC complex spheroid growth, % test/control
Test: Anticancer human tumor 323965-272-R-J2-PDC patient-derived pancreatic carcinoma cell line growth inhibition [Asc]
Details: for pIC50: curve of first compound; for viability, T/C: stronger effect = lower value
Summary of the method: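 Complex solid-tumor spheroids incorporating human endothelial and mesenchymal stem cells received single agents or combinations over half-log dilution ranges anchored to clinical Cmax.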

[1] = second compound 0.00316 µM, first compound 0.0316 µM
[2] = second compound 0.00316 µM, first compound 0.1 µM
[3] = second compound 0.00316 µM, first compound 0.316 µM
[4] = second compound 0.00316 µM, first compound 1 µM
[5] = second compound 0.00316 µM, first compound 3.16 µM
[6] = second compound 0.00316 µM, first compound 10 µM
[7] = second compound 0.01 µM, first compound 0.0316 µM
[8] = second compound 0.01 µM, first compound 0.1 µM
[9] = second compound 0.01 µM, first compound 0.316 µM
[10] = second compound 0.01 µM, first compound 1 µM
[11] = second compound 0.01 µM, first compound 3.16 µM
[12] = second compound 0.01 µM, first compound 10 µM
[13] = second compound 0.0316 µM, first compound 0.0316 µM
[14] = second compound 0.0316 µM, first compound 0.1 µM
[15] = second compound 0.0316 µM, first compound 0.316 µM
[16] = second compound 0.0316 µM, first compound 1 µM
[17] = second compound 0.0316 µM, first compound 3.16 µM
[18] = second compound 0.0316 µM, first compound 10 µM
[19] = second compound 0.1 µM, first compound 0.0316 µM
[20] = second compound 0.1 µM, first compound 0.1 µM
[21] = second compound 0.1 µM, first compound 0.316 µM
[22] = second compound 0.1 µM, first compound 1 µM
[23] = second compound 0.1 µM, first compound 3.16 µM
[24] = second compound 0.1 µM, first compound 10 µM
[25] = second compound 0.316 µM, first compound 0.0316 µM
[26] = second compound 0.316 µM, first compound 0.1 µM
[27] = second compound 0.316 µM, first compound 0.316 µM
[28] = second compound 0.316 µM, first compound 1 µM
[29] = second compound 0.316 µM, first compound 3.16 µM
[30] = second compound 0.316 µM, first compound 10 µM
[31] = second compound 1 µM, first compound 0.0316 µM
[32] = second compound 1 µM, first compound 0.1 µM
[33] = second compound 1 µM, first compound 0.316 µM
[34] = second compound 1 µM, first compound 1 µM
[35] = second compound 1 µM, first compound 3.16 µM
[36] = second compound 1 µM, first compound 10 µM
[37] = second compound 0.00316 µM, first compound 0.00949 µM
[38] = second compound 0.00316 µM, first compound 0.03 µM
[39] = second compound 0.00316 µM, first compound 0.0949 µM
[40] = second compound 0.00316 µM, first compound 0.3 µM
[41] = second compound 0.00316 µM, first compound 0.949 µM
[42] = second compound 0.00316 µM, first compound 3 µM
[43] = second compound 0.01 µM, first compound 0.00949 µM
[44] = second compound 0.01 µM, first compound 0.03 µM
[45] = second compound 0.01 µM, first compound 0.0949 µM
[46] = second compound 0.01 µM, first compound 0.3 µM
[47] = second compound 0.01 µM, first compound 0.949 µM
[48] = second compound 0.01 µM, first compound 3 µM
[49] = second compound 0.0316 µM, first compound 0.00949 µM
[50] = second compound 0.0316 µM, first compound 0.03 µM
[51] = second compound 0.0316 µM, first compound 0.0949 µM
[52] = second compound 0.0316 µM, first compound 0.3 µM
[53] = second compound 0.0316 µM, first compound 0.949 µM
[54] = second compound 0.0316 µM, first compound 3 µM
[55] = second compound 0.1 µM, first compound 0.00949 µM
[56] = second compound 0.1 µM, first compound 0.03 µM
[57] = second compound 0.1 µM, first compound 0.0949 µM
[58] = second compound 0.1 µM, first compound 0.3 µM
[59] = second compound 0.1 µM, first compound 0.949 µM
[60] = second compound 0.1 µM, first compound 3 µM
[61] = second compound 0.316 µM, first compound 0.00949 µM
[62] = second compound 0.316 µM, first compound 0.03 µM
[63] = second compound 0.316 µM, first compound 0.0949 µM
[64] = second compound 0.316 µM, first compound 0.3 µM
[65] = second compound 0.316 µM, first compound 0.949 µM
[66] = second compound 0.316 µM, first compound 3 µM
[67] = second compound 1 µM, first compound 0.00949 µM
[68] = second compound 1 µM, first compound 0.03 µM
[69] = second compound 1 µM, first compound 0.0949 µM
[70] = second compound 1 µM, first compound 0.3 µM
[71] = second compound 1 µM, first compound 0.949 µM
[72] = second compound 1 µM, first compound 3 µM
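Further: compound exposure lasted 7 days starting three days after spheroid seeding.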
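Wherever viability, T/C is given: 100% = DMSO vehicle control wells with viability set relative to vehicle.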

pIC50 (second compound 0.00316 µM): < 5.00
pIC50 (second compound 0.01 µM): < 5.00
pIC50 (second compound 0.0316 µM): < 5.00
pIC50 (second compound 0.1 µM): < 5.00
pIC50 (second compound 0.316 µM): < 5.00
pIC50 (second compound 1 µM): < 5.00
SMILES: C#Cc1c(F)ccc2cc(O)cc(-c3ncc4c(N5CC6CCC(C5)N6)nc(OCC56CCCN5CC(F)C6)nc4c3F)c12 (stereo not drawn) + CNC(C)C(=O)NC1CN(S(=O)(=O)c2cccc(S(=O)(=O)N3CCC4CCC(C(=O)NC(c5ccccc5)c5ccccc5)N4C(=O)C(NC(=O)C(C)NC)C3)c2)CCC2CCC(C(=O)NC(c3ccccc3)c3ccccc3)N2C1=O
viability, T/C [1]: 109%
viability, T/C [2]: 92.7%
viability, T/C [3]: 94.1%
viability, T/C [4]: 94.9%
viability, T/C [5]: 70.2%
viability, T/C [6]: 61.8%
viability, T/C [7]: 117%
viability, T/C [8]: 102%
viability, T/C [9]: 96.4%
viability, T/C [10]: 87.4%
viability, T/C [11]: 74.2%
viability, T/C [12]: 63.2%
viability, T/C [13]: 127%
viability, T/C [14]: 102%
viability, T/C [15]: 106%
viability, T/C [16]: 89.7%
viability, T/C [17]: 70.4%
viability, T/C [18]: 58.3%
viability, T/C [19]: 101%
viability, T/C [20]: 96.6%
viability, T/C [21]: 95.4%
viability, T/C [22]: 91.2%
viability, T/C [23]: 62.3%
viability, T/C [24]: 70.2%
viability, T/C [25]: 101%
viability, T/C [26]: 95.1%
viability, T/C [27]: 96.5%
viability, T/C [28]: 82.4%
viability, T/C [29]: 74%
viability, T/C [30]: 65.4%
viability, T/C [31]: 90.9%
viability, T/C [32]: 105%
viability, T/C [33]: 92.9%
viability, T/C [34]: 91%
viability, T/C [35]: 66.8%
viability, T/C [36]: 53.2%

pIC50 (second compound 0.00316 µM): 5.45
pIC50 (second compound 0.01 µM): 5.45
pIC50 (second compound 0.0316 µM): 5.43
pIC50 (second compound 0.1 µM): 5.46
pIC50 (second compound 0.316 µM): 5.43
pIC50 (second compound 1 µM): 5.47
SMILES: C=C(F)C(=O)N1CCN(c2nc(OCC3CCCN3C)nc3c2CCN(c2cccc4cccc(Cl)c24)C3)CC1CC#N (stereo not drawn) + CNC(C)C(=O)NC1CN(S(=O)(=O)c2cccc(S(=O)(=O)N3CCC4CCC(C(=O)NC(c5ccccc5)c5ccccc5)N4C(=O)C(NC(=O)C(C)NC)C3)c2)CCC2CCC(C(=O)NC(c3ccccc3)c3ccccc3)N2C1=O
viability, T/C [1]: 54.3%
viability, T/C [2]: 48.5%
viability, T/C [3]: 50.5%
viability, T/C [4]: 56.1%
viability, T/C [5]: 67.9%
viability, T/C [6]: 0.23%
viability, T/C [7]: 62.3%
viability, T/C [8]: 44.2%
viability, T/C [9]: 48.8%
viability, T/C [10]: 56.6%
viability, T/C [11]: 66.3%
viability, T/C [12]: 0.24%
viability, T/C [13]: 55.8%
viability, T/C [14]: 54.8%
viability, T/C [15]: 47.1%
viability, T/C [16]: 55.4%
viability, T/C [17]: 76%
viability, T/C [18]: 0.21%
viability, T/C [19]: 52%
viability, T/C [20]: 46.7%
viability, T/C [21]: 48.5%
viability, T/C [22]: 53.4%
viability, T/C [23]: 69.9%
viability, T/C [24]: 0.25%
viability, T/C [25]: 55.5%
viability, T/C [26]: 53.6%
viability, T/C [27]: 59.5%
viability, T/C [28]: 53.8%
viability, T/C [29]: 68.3%
viability, T/C [30]: 0.21%
viability, T/C [31]: 56.8%
viability, T/C [32]: 49.1%
viability, T/C [33]: 38.6%
viability, T/C [34]: 56%
viability, T/C [35]: 65%
viability, T/C [36]: 0.22%

pIC50 (second compound 0.00316 µM): < 5.52
pIC50 (second compound 0.01 µM): < 5.52
pIC50 (second compound 0.0316 µM): < 5.52
pIC50 (second compound 0.1 µM): < 5.52
pIC50 (second compound 0.316 µM): < 5.52
pIC50 (second compound 1 µM): < 5.52
SMILES: CCN1C(C(=O)NC23CCC(C(=O)O)(CC2)CC3)C(c2cccc(Cl)c2F)C2(C(=O)Nc3cc(Cl)ccc32)C12CCCCC2 (stereo not drawn) + CNC(C)C(=O)NC1CN(S(=O)(=O)c2cccc(S(=O)(=O)N3CCC4CCC(C(=O)NC(c5ccccc5)c5ccccc5)N4C(=O)C(NC(=O)C(C)NC)C3)c2)CCC2CCC(C(=O)NC(c3ccccc3)c3ccccc3)N2C1=O
viability, T/C [37]: 107%
viability, T/C [38]: 93.6%
viability, T/C [39]: 98.2%
viability, T/C [40]: 93.1%
viability, T/C [41]: 105%
viability, T/C [42]: 89.3%
viability, T/C [43]: 110%
viability, T/C [44]: 97.8%
viability, T/C [45]: 101%
viability, T/C [46]: 93.5%
viability, T/C [47]: 97%
viability, T/C [48]: 89.7%
viability, T/C [49]: 99.9%
viability, T/C [50]: 99.1%
viability, T/C [51]: 105%
viability, T/C [52]: 101%
viability, T/C [53]: 92.2%
viability, T/C [54]: 82.7%
viability, T/C [55]: 116%
viability, T/C [56]: 97.7%
viability, T/C [57]: 97.8%
viability, T/C [58]: 104%
viability, T/C [59]: 87.5%
viability, T/C [60]: 83.9%
viability, T/C [61]: 93%
viability, T/C [62]: 81.6%
viability, T/C [63]: 94.8%
viability, T/C [64]: 93.3%
viability, T/C [65]: 95.7%
viability, T/C [66]: 86.2%
viability, T/C [67]: 90.8%
viability, T/C [68]: 87.6%
viability, T/C [69]: 94.7%
viability, T/C [70]: 85.5%
viability, T/C [71]: 89.5%
viability, T/C [72]: 76.6%

pIC50 (second compound 0.00316 µM): 6.00
pIC50 (second compound 0.01 µM): < 5.52
pIC50 (second compound 0.0316 µM): < 5.52
pIC50 (second compound 0.1 µM): 5.83
pIC50 (second compound 0.316 µM): 5.82
pIC50 (second compound 1 µM): 6.01
SMILES: Cc1nc(N2CCC3(CC2)COC(C)C3N)c(CO)nc1Sc1ccnc(N)c1Cl (stereo not drawn) + CNC(C)C(=O)NC1CN(S(=O)(=O)c2cccc(S(=O)(=O)N3CCC4CCC(C(=O)NC(c5ccccc5)c5ccccc5)N4C(=O)C(NC(=O)C(C)NC)C3)c2)CCC2CCC(C(=O)NC(c3ccccc3)c3ccccc3)N2C1=O
viability, T/C [37]: 109%
viability, T/C [38]: 84.6%
viability, T/C [39]: 71.8%
viability, T/C [40]: 55.7%
viability, T/C [41]: 52.4%
viability, T/C [42]: 43.9%
viability, T/C [43]: 99.4%
viability, T/C [44]: 94.3%
viability, T/C [45]: 66%
viability, T/C [46]: 62%
viability, T/C [47]: 52.6%
viability, T/C [48]: 47.7%
viability, T/C [49]: 110%
viability, T/C [50]: 97.4%
viability, T/C [51]: 80%
viability, T/C [52]: 58.1%
viability, T/C [53]: 57.9%
viability, T/C [54]: 49%
viability, T/C [55]: 93.9%
viability, T/C [56]: 96.6%
viability, T/C [57]: 80.9%
viability, T/C [58]: 65.6%
viability, T/C [59]: 51.2%
viability, T/C [60]: 47.4%
viability, T/C [61]: 97.7%
viability, T/C [62]: 85%
viability, T/C [63]: 86.7%
viability, T/C [64]: 60.5%
viability, T/C [65]: 58.2%
viability, T/C [66]: 42.3%
viability, T/C [67]: 84.8%
viability, T/C [68]: 80.4%
viability, T/C [69]: 71.9%
viability, T/C [70]: 62%
viability, T/C [71]: 50.1%
viability, T/C [72]: 39.8%
